Data taken from paper PMC2997436 (Journal of medicinal chemistry, 2010).
Where two headings read alike, the source gives them in different places.

Experiments:
α3β4 nAChR [1] = target: T1, α3β4 nAChR (Rattus norvegicus, UniProt P04757+P12392); assay type: cell-based
rat α3β4 nAChR = rat α3β4 nAChR (Rattus norvegicus, UniProt P04757+P12392); assay type: binding
rat α4β2 nAChR = rat α4β2 nAChR (Rattus norvegicus, UniProt P09483+P12390); assay type: binding
α7 nAChR = α7 nAChR (Rattus norvegicus, UniProt Q05941); experiment: biochemical; assay type: binding
α4β2 nAChR = α4β2 nAChR (Rattus norvegicus, UniProt P09483+P12390); experiment: Functional assay; assay type: cell-based
α3β4 nAChR [2] = target: T1, α3β4 nAChR; conditions: change in both Kd and Bmax of [3H]epibatidine
[3] = FLIPR, alone and against epibatidine-induced Ca2+ fluorescence

Chain of rat α4β2 nAChR (P09483 31-630): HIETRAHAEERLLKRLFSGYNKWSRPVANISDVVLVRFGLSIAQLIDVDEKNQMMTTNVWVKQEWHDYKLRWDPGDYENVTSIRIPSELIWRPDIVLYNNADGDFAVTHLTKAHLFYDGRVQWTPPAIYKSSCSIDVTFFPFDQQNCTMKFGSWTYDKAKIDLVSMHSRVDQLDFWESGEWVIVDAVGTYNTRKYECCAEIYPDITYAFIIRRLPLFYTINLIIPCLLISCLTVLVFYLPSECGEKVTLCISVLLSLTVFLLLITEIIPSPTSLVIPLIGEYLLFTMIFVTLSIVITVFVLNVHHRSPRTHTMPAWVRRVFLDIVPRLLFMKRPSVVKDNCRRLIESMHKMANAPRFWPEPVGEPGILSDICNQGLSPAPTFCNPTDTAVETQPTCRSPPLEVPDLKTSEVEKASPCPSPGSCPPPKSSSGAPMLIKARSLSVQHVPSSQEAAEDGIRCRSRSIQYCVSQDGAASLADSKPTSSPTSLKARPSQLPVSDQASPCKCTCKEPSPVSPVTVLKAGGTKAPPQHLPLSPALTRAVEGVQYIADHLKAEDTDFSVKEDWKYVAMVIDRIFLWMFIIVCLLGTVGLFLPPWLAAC
Chain of rat α4β2 nAChR (P12390 25-500): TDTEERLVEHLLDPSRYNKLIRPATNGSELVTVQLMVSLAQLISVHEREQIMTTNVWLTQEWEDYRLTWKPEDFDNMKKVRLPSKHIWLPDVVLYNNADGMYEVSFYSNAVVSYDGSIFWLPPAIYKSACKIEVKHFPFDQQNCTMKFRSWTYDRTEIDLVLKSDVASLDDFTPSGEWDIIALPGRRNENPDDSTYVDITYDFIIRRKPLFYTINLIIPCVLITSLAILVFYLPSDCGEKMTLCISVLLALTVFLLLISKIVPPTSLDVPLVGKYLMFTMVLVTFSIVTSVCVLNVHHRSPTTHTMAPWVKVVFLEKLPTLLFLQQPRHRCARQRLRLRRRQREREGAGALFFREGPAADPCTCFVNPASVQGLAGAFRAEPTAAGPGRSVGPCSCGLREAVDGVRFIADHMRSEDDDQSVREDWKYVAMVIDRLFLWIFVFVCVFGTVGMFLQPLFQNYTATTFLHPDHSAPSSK
T1 sequence (P12392 22-495): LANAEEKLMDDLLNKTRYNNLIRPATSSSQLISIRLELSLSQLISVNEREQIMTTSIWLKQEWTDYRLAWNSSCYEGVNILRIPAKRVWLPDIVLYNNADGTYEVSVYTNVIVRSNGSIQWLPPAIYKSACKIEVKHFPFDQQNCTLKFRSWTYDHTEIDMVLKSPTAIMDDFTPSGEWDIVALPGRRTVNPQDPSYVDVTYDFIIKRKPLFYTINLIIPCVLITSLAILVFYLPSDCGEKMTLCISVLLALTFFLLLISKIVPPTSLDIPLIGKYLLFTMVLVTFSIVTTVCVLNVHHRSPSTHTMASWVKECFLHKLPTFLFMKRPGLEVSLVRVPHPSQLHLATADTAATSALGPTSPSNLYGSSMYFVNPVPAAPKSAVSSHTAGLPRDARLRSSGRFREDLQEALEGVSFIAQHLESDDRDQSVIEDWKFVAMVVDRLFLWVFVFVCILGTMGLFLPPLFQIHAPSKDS
T1 sequence (P04757 26-499): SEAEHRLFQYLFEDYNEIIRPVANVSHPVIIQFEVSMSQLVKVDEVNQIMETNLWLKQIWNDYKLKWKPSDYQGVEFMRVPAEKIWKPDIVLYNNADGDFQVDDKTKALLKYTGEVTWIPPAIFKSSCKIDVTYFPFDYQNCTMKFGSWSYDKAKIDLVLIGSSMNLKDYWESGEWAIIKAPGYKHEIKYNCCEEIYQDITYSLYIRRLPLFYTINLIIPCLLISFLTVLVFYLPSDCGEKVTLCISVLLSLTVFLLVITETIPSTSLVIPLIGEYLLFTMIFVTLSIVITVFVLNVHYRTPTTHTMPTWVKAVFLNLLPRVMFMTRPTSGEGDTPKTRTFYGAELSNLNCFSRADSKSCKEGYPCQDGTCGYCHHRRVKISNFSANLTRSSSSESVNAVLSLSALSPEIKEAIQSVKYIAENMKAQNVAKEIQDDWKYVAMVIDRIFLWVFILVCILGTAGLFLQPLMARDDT
Chain of rat α3β4 nAChR (P04757 26-499): as above
Chain of rat α3β4 nAChR (P12392 22-495 limits assumed): as the sequence (P12392 22-495) above
Chain of α4β2 nAChR (P09483 31-630): as the sequence (P09483 31-630) above
Chain of α4β2 nAChR (P12390 25-500): as the sequence (P12390 25-500) above
Chain of α7 nAChR (Q05941 23-502): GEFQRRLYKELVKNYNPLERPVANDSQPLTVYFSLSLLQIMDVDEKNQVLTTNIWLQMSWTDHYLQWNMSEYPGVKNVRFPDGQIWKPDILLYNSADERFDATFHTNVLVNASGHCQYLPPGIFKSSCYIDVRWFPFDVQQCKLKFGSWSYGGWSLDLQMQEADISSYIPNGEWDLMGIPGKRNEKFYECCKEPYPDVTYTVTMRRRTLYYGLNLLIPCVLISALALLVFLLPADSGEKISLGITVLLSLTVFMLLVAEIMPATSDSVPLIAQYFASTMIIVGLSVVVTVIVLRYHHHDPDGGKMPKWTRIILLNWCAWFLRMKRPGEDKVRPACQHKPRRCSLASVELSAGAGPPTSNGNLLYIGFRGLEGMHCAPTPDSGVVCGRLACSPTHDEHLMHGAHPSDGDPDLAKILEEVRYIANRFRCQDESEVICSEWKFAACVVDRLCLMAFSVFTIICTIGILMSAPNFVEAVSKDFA

O=C1Cc2ccccc2N1C1CC2CCCC(C1)N2 (stereo not drawn) [Compound 6]
functional activity at α3β4 nAChR (in words) (α3β4 nAChR [1]; [3]): antagonists
potency in reversing epibatidine-induced Ca2+ fluorescence (α3β4 nAChR [1]; FLIPR, α3β4 HEK cells): micromolar range

CCOC(=O)N1C2C=C(c3cccnc3)CC1CCC2 (stereo not drawn) [Compound 7]
binding affinity at α3β4 nAChR (in words) (rat α3β4 nAChR): complete loss of binding affinity
binding affinity at α4β2 nAChR (in words) (rat α4β2 nAChR): complete loss of binding affinity

CN1C2C=C(c3cccnc3)CC1CCC2 (stereo not drawn) [Compound 8, 9-methyl-3-(pyridin-3-yl)-9-azabicyclo[3.3.1]non-2-ene]
functional activity at α3β4 nAChR (in words) (α3β4 nAChR [1]; [3]): partial agonist activity

C1=C(c2cccnc2)CC2CC1CN2Cc1ccccc1 (stereo not drawn) [Compound 10, 6-benzyl-3-(pyridin-3-yl)-6-azabicyclo[3.2.1]oct-2-ene]
Ki (rat α3β4 nAChR): 170 ± 47.9 nM
selectivity for α4β2 over α3β4 receptors (rat α4β2 nAChR): about 100 fold
selectivity for α4β2 over α7 nAChR (rat α4β2 nAChR): greater than 200 fold
Ki (rat α4β2 nAChR; binding affinity (Ki) α4β2): 1.95 ± 0.18 nM
Ki (α7 nAChR): 424 nM
functional activity at α3β4 nAChR (in words) (α3β4 nAChR [1]): partial agonist
functional activity at α4β2 nAChR (in words) (α4β2 nAChR): partial agonist

O=C1Cc2ccccc2N1C1CC2CC(C1)N(Cc1ccccc1)C2 (stereo not drawn) [Compound 12]
binding affinity at α4β2 nAChR (in words) (rat α4β2 nAChR): completely abolished affinity

O=c1cccc2n1C[C@@H]1CNC[C@H]2C1 [Cytisine]
mode of binding with epibatidine at α3β4 (α3β4 nAChR [2]): noncompetitively

Clc1ccc(C2CC3CCC2N3)cn1 (stereo not drawn) [Epibatidine, reference compound]
increase in intracellular Ca2+-induced fluorescence (α3β4 nAChR [1]): 1000 fold
